# Laboratory results from patent US10300067B2, “Tetrahydropyridopyrimidine compound or salt thereof” (TAIHO PHARMACEUTICAL CO., LTD., priority 2014, dated 2019).
# Target: human androgen receptor (Homo sapiens (Human), UniProt P10275)
# Assay: Antagonist activity for AR (pMMTV-luc reporter transcription activity in transfected COS-7 cells, DHT 1 nmol/L)
# Type: cell-based
# Settings: for IC50: 50% transcription activity inhibition concentration, COS-7 cells with pMMTV-luc and pEX-hAR, DHT 1 nmol/L, 24 hours
# Experimental: Antagonist activity for AR was evaluated according to the following method. COS-7 cells (ATCC) were transfected with pMMTV-luc vector (reporter plasmid having, as an androgen response element, […] long terminal repeat) and pEX-hAR vector (human androgen receptor expression vector: which expresses human AR gene under control of CMV promoter) by using Nucleofector (registered trademark) Kit R (Lonza) as a transfection reagent and Amaxa (Lonza). The COS-7 cells obtained after transfection were seeded in a clear bottom 96 well microplate (BD) at 1.5×10^4/well with phenol red free RPMI1640 containing 10% charcoal-treated fetal bovine serum (hereinbelow, DCC-FBS) (hereinbelow, the medium is referred to as an evaluation medium), and then cultured overnight. […] Then, the transcription activity value was measured. The transcription activity was measured by using Bright-Glo™ Luciferase Assay System (Promega).
# human androgen receptor, sequence (P10275 whole entry): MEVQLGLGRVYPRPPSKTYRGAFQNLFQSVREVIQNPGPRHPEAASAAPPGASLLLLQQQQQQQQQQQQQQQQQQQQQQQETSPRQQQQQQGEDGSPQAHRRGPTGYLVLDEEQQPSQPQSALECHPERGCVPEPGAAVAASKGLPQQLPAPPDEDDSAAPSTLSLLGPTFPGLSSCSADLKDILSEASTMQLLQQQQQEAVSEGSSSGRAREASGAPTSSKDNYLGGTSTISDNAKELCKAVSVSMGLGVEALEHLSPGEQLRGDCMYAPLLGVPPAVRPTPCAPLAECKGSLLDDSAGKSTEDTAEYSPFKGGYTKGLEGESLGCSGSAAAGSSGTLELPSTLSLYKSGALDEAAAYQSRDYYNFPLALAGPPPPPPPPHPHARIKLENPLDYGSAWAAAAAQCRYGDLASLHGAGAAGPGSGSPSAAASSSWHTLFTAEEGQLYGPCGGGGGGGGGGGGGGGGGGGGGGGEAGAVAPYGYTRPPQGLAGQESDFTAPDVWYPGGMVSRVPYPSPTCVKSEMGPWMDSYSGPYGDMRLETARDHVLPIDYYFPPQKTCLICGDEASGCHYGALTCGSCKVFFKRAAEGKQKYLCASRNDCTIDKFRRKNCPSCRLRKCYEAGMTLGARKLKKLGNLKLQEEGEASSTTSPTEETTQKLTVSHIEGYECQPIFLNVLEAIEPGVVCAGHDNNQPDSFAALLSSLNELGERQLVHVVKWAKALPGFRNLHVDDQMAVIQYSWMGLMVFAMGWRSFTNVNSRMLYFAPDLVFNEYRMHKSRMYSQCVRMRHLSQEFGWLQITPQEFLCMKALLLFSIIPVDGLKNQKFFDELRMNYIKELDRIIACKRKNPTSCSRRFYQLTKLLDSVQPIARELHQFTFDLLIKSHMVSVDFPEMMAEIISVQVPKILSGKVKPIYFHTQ
Structure (SMILES),IC50,antagonist activity for AR (in words) (COS-7 reporter assay)
"CC(C)(O)c1ccc(Nc2ncnc3c2CCN(c2ccc(C#N)cc2Cl)C3)nc1 [Comparative Example 5, 3-Chloro-4-(4-((5-(2-hydroxypropan-2-yl)pyridin-2-yl)amino)-5,6-dihydropyrido[3,4-d]pyrimidin-7(8H)-yl)benzonitrile, reference compound]",> 10000 nM,
"CC(C)(O)c1ccc(Nc2ncnc3c2CCN(c2cc(Cl)cc(C#N)c2)C3)nc1 [Comparative Example 6, 3-Chloro-5-(4-((5-(2-hydroxypropan-2-yl)pyridin-2-yl)amino)-5,6-dihydropyrido[3,4-d]pyrimidin-7 (8H)-yl)benzonitrile, reference compound]",> 10000 nM,
"CC(C)(O)c1ccc(Nc2ncnc3c2CCN(c2cccc(Cl)c2C#N)C3)nc1 [Comparative Example 7, 2-Chloro-6-(4-((5-(2-hydroxypropan-2-yl)pyridin-2-yl)amino)-5,6-dihydropyrido[3,4-d]pyrimidin-7 (8H)-yl)benzonitrile, reference compound]",> 10000 nM,
"N#Cc1cc(C(F)(F)F)ccc1N1CCc2c(ncnc2Nc2ccc(C(=O)NCC(F)(F)F)cn2)C1 [Comparative Example 8, 6-((7-(2-Cyano-4-(trifluoromethyl)phenyl)-5,6,7,8-tetrahydropyrido[3,4-d]pyrimidin-4-yl)amino)-N-(2,2,2-trifluoroethyl)nicotinamide, reference compound]",> 10000 nM,
"N#Cc1ccc(C(F)(F)F)cc1N1CCc2c(ncnc2Nc2ccc(C(=O)NCC(F)(F)F)cn2)C1 [Comparative Example 9, 6-((7-(2-Cyano-5-(trifluoromethyl)phenyl)-5,6,7,8-tetrahydropyrido[3,4-d]pyrimidin-4-yl)amino)-N-(2,2,2-trifluoroethyl)nicotinamide, reference compound]",> 10000 nM,
"N#Cc1cccc(N2CCc3c(ncnc3Nc3ccc(C(=O)NCC(F)(F)F)cn3)C2)c1C(F)(F)F [Comparative Example 10, 6-((7-(3-Cyano-2-(trifluoromethyl)phenyl)-5,6,7,8-tetrahydropyrido[3,4-d]pyrimidin-4-yl)amino)-N-(2,2,2-trifluoroethyl)nicotinamide, reference compound]",> 10000 nM,
"CC(C)(O)c1ccc(Nc2ncnc3c2CCN(c2ccc(C#N)cc2)C3)nc1 [Comparative Example 11, 4-(4-((5-(2-Hydroxypropan-2-yl)pyridin-2-yl)amino)-5,6-dihydropyrido[3,4-d]pyrimidin-7(8H)-yl)benzonitrile, reference compound]",> 10000 nM,did not show the antagonist activity for AR
"N#Cc1ccc(N2CCc3c(ncnc3Nc3ccc(CC(=O)NCC(F)(F)F)cn3)C2)cc1C(F)(F)F [Example 22, 2-(6-((7-(4-Cyano-3-(trifluoromethyl)phenyl)-5,6,7,8-tetrahydropyrido[3,4-d]pyrimidin-4-yl)amino)pyridin-3-yl)-N-(2,2,2-trifluoroethyl)acetamide]",370 nM,
"N#Cc1ccc(N2CCc3c(ncnc3Nc3cc(C(=O)NCC(F)(F)F)ccn3)C2)cc1C(F)(F)F [Example 31, 2-((7-(4-Cyano-3-(trifluoromethyl)phenyl)-5,6,7,8-tetrahydropyrido[3,4-d]pyrimidin-4-yl)amino)-N-(2,2,2-trifluoroethyl)isonicotinamide]",390 nM,
"CC(C)(O)C1CCN(C(=O)c2nnc(Nc3ncnc4c3CCN(c3ccc(C#N)c(C(F)(F)F)c3)C4)o2)CC1 [Example 43, 4-(4-((5-(4-(2-Hydroxypropan-2-yl)piperidin-1-carbonyl)-1,3,4-oxadiazol-2-yl)amino)-5,6-dihydropyrido[3,4-d]pyrimidin-7(8H)-yl)-2-(trifluoromethyl)benzonitrile]",790 nM,
"CC(C)(O)c1cnc(Nc2ncnc3c2CCN(c2ccc(C#N)c(Cl)c2)C3)cc1F [Example 45, 2-Chloro-4-(4-((4-fluoro-5-(2-hydroxypropan-2-yl)pyridin-2-yl)amino)-5,6-dihydropyrido[3,4-d]pyrimidin-7 (8H)-yl)benzonitrile]",940 nM,
